What was measured:
[1] = system: Glukosidasen; conditions: known from Angew. Chem. 93, 738 (1981); cited from earlier work
[2] = target: α-N-Acetyl-galaktosaminidase; test: Inhibition of α-N-acetylgalactosaminidase; assay type: biochemical; conditions: α-N-Acetyl-galaktosaminidase aus Charonia lampas; read-out: IC₅₀
[3] = system: UDP-gal NAc: polypeptid-α-N-acetylgalaktosaminyl-transferase; test: Inhibition of polypeptide α-N-acetylgalactosaminyl transferase activity; assay type: biochemical; conditions: qualitative statement, no value given
[4] = system: Glykoproteinen; test: Effect on half-life of glycoproteins; conditions: qualitative statement, no value given

OC[C@H]1NC[C@H](O)[C@@H](O)[C@@H]1O [1-Desoxynojirimycin]
Hemmwirkung auf Glukosidasen [1]: Hemmwirkung

CC(=O)N[C@H]1CN[C@H](CO)[C@H](O)[C@@H]1O [If, 2-N-Acetyl-1,2,5-tridesoxy-1,5-imino-D-galaktit]
IC50 [2]: 1400 nM
Aktivität der UDP-gal NAc: polypeptid-α-N-acetylgalaktosaminyl-transferase [3]: inhibiert
Halbwertszeit von Glykoproteinen [4]: erhöht

Source: EP0298350A2, “Chiral 6-hydroxymethyl-3-amino-4,5-dihydroxy piperidines, their intermediates, processes for their preparation and their use” (BAYER AG, priority 1987, dated 1989)
